This note sets out measurements from patent US6541483B2, “Acridone-derived compounds useful as antineoplastic and antiretroviral agents” (The United States of America as represented by the …, priority 1996, dated 2003).

Assay [1] concerns HIV-1 LTR-directed chloramphenicol acetyltransferase (CAT) activity. As to the kind of experiment: LTR-directed CAT activity in BF-24 cells. The following applies: 24 h, temacrazine up to 5 μM. In kind it is cell-based. The source says:
Initiation and regulation of HIV-1 transcription requires a complex series of interactions with cellular transcription factors, such as NFkB, SP-1 and AP-1, and the participation of cellular factors in the transcriptional complex. In addition, the post-integrative model used here requires TNFα stimulated U1 and ACH-2 cells, this model requires not only the participation of the NFkB transcriptional complex, and also components of the TNFα signaling pathway. In order to rule out that temacrazine was non-specifically effecting transcription or down-regulating replication by interfering with the TNFα signal pathway, LTR-directed chloramphenicol acetyltransferase (CAT) activity was measured in BF-24 cells. BF-24 cells are derived from the THP-1 monocytic cell line and carry a stably integrated CAT gene under the transcriptional control of the HIV-1 LTR (S. Schwartz, et al., Proc. Natl. Acad. Sci. USA 86:7200 (1989); B. K. Felber, et al., Science 239:184 (1988)). The LTR in this monocytic cell line is inducible by IL-6, PMA and TNFα, and produces enzymatically active chloramphenicol transferase (“CAT”). […]
CAT activity was determined using a fluorescent Bodipy conjugated chloramphenicol after 18 h of reaction with 50 μg of protein extract containing Acetyl CoA.

Assay [2] relates to HIV-1ADA. Kind of assay: anti-HIV-1 activity in monocyte/macrophage cultures. In kind it is cell-based. The settings on record: Human immunodeficiency virus 1; HIV-1ADA, human monocyte/macrophage cultures; read-out: Mo/Mφ EC50. The method, then: (§1) The antiviral properties of the WMC series of compounds were evaluated. First, all compounds were tested for their ability to inhibit HIV-1 replication in cell culture using the XTT cytoprotection assay. This assay measures the concentration-dependent capacity of compounds to protect CEM-SS cells from the cytopathic effects of HIV-1. […] Thus, temacrazine was the most efficacious compound in the XTT cytoprotection assay. This conclusion was also reached when the compounds were tested for anti-HIV-1 activity against HIV-1ADA in human monocyte/macrophage cultures (Table 1).

In assay [3] the test system is HIV-1. As to the kind of experiment: XTT cytoprotection assay in CEM-SS cells (antiviral EC50). In kind it is cell-based.
From the text: (§2) Briefly, the infected cells in culture are killed by the virus, and the cytotoxicity is detected by the formation of color due to the […] of a formazan dye (XTT) by enzymes released by the dying cells (Weislow et al., J. Natl. Cancer Inst. 81:577-586, 1989). An effective antiviral drug is able to protect the infected cells from cytotoxicity by inhibiting some vital function of the virus. […] FIGS. 4 and 5 show the cytoprotective activity of WMC26 and WMC42. Since many drugs can also be toxic to cells in their own right, a parallel experiment is carried out wherein uninfected cells are treated with the drugs until a concentration is reached where the cells are killed by the action of the drug.
(§3) As a result of these preliminary data, additional experiments were carried out to establish the antiviral activity in other cell lines, using a variety of protocols. The preliminary experiments in lymphocytes were confirmed using infected macrophages. Much more extensive experiments were carried out in HIV-1-infected CEM SS leukemia cells. […] However, two derivatives were found which had low antileukemic activity while maintaining high antiviral activity. […] This gives a therapeutic index of more than 3 orders of magnitude. The corresponding therapeutic index for WMC50 is about 100-200, which is quite acceptable. Additional experiments were carried out on WMC-70. […] Further, WMC-70 appears to affect post-transcription events in the virus. […] While the inhibition of integration appears to be the principal mechanism by which this compound exerts its antiviral activity, there are perhaps other mechanisms which are also involved in the therapeutic action of this drug, and by extension, of other antiviral drugs of this class.
as §1

Assay [4] deals with attachment of HIV-1RF to CEM-SS cells. As to the kind of experiment: attachment of virions to CEM-SS cells (cell-bound p24 ELISA). In kind it is cell-based. The settings on record: Human immunodeficiency virus 1, CEM-SS. The source says: (§4) Based on the findings thus far our efforts have focused on biological assays of the temacrazine congener.
Background: ELISA stands for enzyme-linked immunosorbent assay.

Assay [5] addresses HIV-1 integrase (Human immunodeficiency virus type 1 group M subtype B, UniProt P04585). Kind of assay: 3'-processing and strand transfer with recombinant integrase. The arrangement: in vitro assay using purified oligomers and recombinant HIV-1 integrase. In kind it is biochemical.
From the text: as §4

The test system of assay [6] is CEM-SS cells. Kind of assay: XTT assay toxicity in CEM-SS cells (IC50). In kind it is cell-based. The following applies: for IC50: Homo sapiens, CEM-SS cells.
From the text: as §2, §3, §1
For orientation: Tetrazolium assays rely on reduction of a dye to a coloured formazan, in cell work by metabolically active cells.

Assay [7] addresses HIV-1 reverse transcriptase (Human immunodeficiency virus type 1 group M subtype B, UniProt P04585). As to the kind of experiment: reverse transcriptase enzyme activity. In kind it is biochemical.
From the text: as §4

The test system of assay [8] is HIV-1 in U1 cells. Kind of assay: TNF-α stimulated latently infected U1 cells, virus production. In kind it is cell-based. How it is done:
As a model of the late phase events during the HIV-1 replication cycle, U1 cells were used that are latently infected with two copies of HIV-1 proviral DNA. The high level expression of virus production in these U1 cells can be stimulated by certain factors, such as TNF-α. U1 cells were stimulated with TNF-α for 24 hours, after which were added various concentrations of temacrazine, and the cultures were allowed to incubate for 48 additional hours. At that time, the cells were evaluated for viability and for their content of viral protein synthesis and processing, while the cell-free supernatant was evaluated for viral p24 content and for the infectious titer of released virions.
After TNFα induction and temacrazine treatment, cultures were continued for 72 h after which virion-associated p24 and cell viability (XTT dye reduction) were measured.

In assay [9] the target is p7 nucleocapsid protein zinc fingers (Human immunodeficiency virus type 1 group M subtype B, UniProt P04591). Kind of assay: p7NC zinc finger fluorescence assays (TSQ, Trp37). In kind it is biochemical, HIV-1.
From the text: as §4

Read-outs that look alike come from different tables or passages of the source. Some results are limits rather than exact numbers.

`O=c1c2ccccc2n2nnc3ccc(NCCCN4CCN(CCCNc5ccc6nnn7c8ccccc8c(=O)c5c67)CC4)c1c32` [temacrazine]: the “CAT induction by TNFα” value in [1] is given as “did not significantly alter CAT induction”. The EC50 in assay [2] was 10 nM; in assay [3] (Human immunodeficiency virus 1, CEM-SS, read-out: EC50 (inhibits the cytotoxic effect of the virus to 50%)), less than 1 nM; in [3] (Human immunodeficiency virus 1, CEM-SS, read-out: XTT Assay EC50), 1.1 nM; in assay [3] (Human immunodeficiency virus 1, CEM-SS cells, read-out: EC50 antiviral value, XTT cytoprotection assay), 1.1 nM; in [5] (read-out: EC50, 3'-processing and strand transfer activity, purified oligomers, recombinant HIV-1 integrase) it was 10 to 100 nM; in [8] (Human immunodeficiency virus 1, U1 cells, 72 h, read-out: EC50, inhibition of HIV-1 virus replication (virion-associated p24)) it was 10 to 100 nM. In addition, in assay [3] (CEM SS cells), the therapeutic index entry is on record as “more than 3 orders of magnitude”. Besides, in [3] (HIV-1-infected CEM SS leukemia cells), the cytoprotective activity result is “cytoprotective at very low concentrations”. For the same molecule, the IC50 in assay [4] (Table 1, read-out: Attachment ID50) was greater than 100000 nM; in assay [4] (Table 1A, read-out: I50 Attachment) it was greater than 100000 nM; in [5], 10 to 100 nM; in assay [6] (Table 1, read-out: XTT Assay IC50), 2770 nM; in assay [6] (read-out: IC50 toxicity value, XTT assay) it was 2770 nM; in assay [7] it was greater than 100000 nM. Besides, the IC50 in [7] (read-out: I50 RT Enzyme Activity, rAdT Template/primer) was greater than 100000 nM; in assay [7] (read-out: I50 RT Enzyme Activity, rCdG Template/primer), greater than 100000 nM. In [6] (CEM SS cells), the “concentration at which the drug kills 50% of the cells” value was “greater than micromolar concentrations”. In addition, the “inhibition of reverse transcriptase” value in assay [7] is on record as “did not inhibit”. Moreover, the “production of infectious virus following stimulation with TNFα” value in assay [8] (30 min. pulse of cultures) is recorded as “presented subsequent production of infectious virus”. Besides, the “infectivity of released viral particles (IU/ml)” value in assay [8] (TNF-α 24 h, then drug 48 h) is recorded as “non-infectious”. Besides, in assay [8] (TNF-α 24 h, then drug 48 h, cell-free supernatant), the “concentration at which virus production (p24) was inhibited” value is “below 4 nM”. Besides, in [8] (cells with integrated virus (U1), Western blotting, listed as WMC-70), the “processing of Gag precursor polyprotein (Pr55gag) to p24 and p7NC” value is recorded as “no p24 can be detected”. Besides, the “damage of the gag protein zinc finger” value in [9] is recorded as “did not damage”.
